{
  "source": "patent US5583115A",
  "about": "“Dialkyltiacumicin compounds” (Abbott Laboratories, priority 1995, dated 1996)",
  "key": {"C. ramosum": {"tested_on": "C. ramosum", "assay": "MIC agar dilution, anaerobic bacteria", "type": "cell-based", "settings": "Culture # 2482"}, "Fusobacterium nucleatum": {"tested_on": "Fusobacterium nucleatum", "assay": "MIC agar dilution, anaerobic bacteria", "type": "cell-based", "settings": "Culture # 2478"}, "P. magnus": {"tested_on": "P. magnus", "assay": "MIC agar dilution, anaerobic bacteria", "type": "cell-based", "settings": "Culture # 1778"}, "Fusobacterium species": {"tested_on": "Fusobacterium species", "assay": "MIC agar dilution, anaerobic bacteria", "type": "cell-based", "settings": "Culture # 1770"}, "Enterococcus faecium": {"tested_on": "Enterococcus faecium", "assay": "MIC agar dilution, aerobic and facultative bacteria", "settings": "Culture # 1668"}, "E. coli": {"tested_on": "E. coli", "assay": "MIC agar dilution, aerobic and facultative bacteria", "type": "cell-based"}, "Streptococcus bovis": {"tested_on": "Streptococcus bovis", "assay": "MIC agar dilution, aerobic and facultative bacteria", "settings": "Culture # 1699"}, "Pseudomonas aeruginosa": {"tested_on": "Pseudomonas aeruginosa", "assay": "MIC agar dilution, aerobic and facultative bacteria"}, "Streptococcus agalactiae": {"tested_on": "Streptococcus agalactiae", "assay": "MIC agar dilution, aerobic and facultative bacteria", "settings": "Culture # 1670"}, "Klebsiella pneumoniae": {"tested_on": "Klebsiella pneumoniae", "assay": "MIC agar dilution, aerobic and facultative bacteria", "settings": "Culture # 2518"}, "[1]": {"tested_on": "Acinetobacter calcoaceticus", "assay": "MIC agar dilution, aerobic and facultative bacteria", "settings": "Culture # 1845"}, "Mycobacterium smegmatis": {"tested_on": "Mycobacterium smegmatis", "assay": "MIC agar dilution, aerobic and facultative bacteria", "settings": "Culture # 5171"}, "Providencia stuartii": {"tested_on": "Providencia stuartii", "assay": "MIC agar dilution, aerobic and facultative bacteria", "settings": "Culture # 1831"}, "Propionibacterium acnes": {"tested_on": "Propionibacterium acnes", "assay": "MIC agar dilution, anaerobic bacteria", "type": "cell-based", "settings": "Culture # 1775"}, "Staphylococcus aureus": {"tested_on": "Staphylococcus aureus", "assay": "MIC agar dilution, aerobic and facultative bacteria"}, "Bacteriodes fragilis": {"tested_on": "Bacteriodes fragilis", "assay": "MIC agar dilution, anaerobic bacteria", "type": "cell-based"}, "B. disiens": {"tested_on": "B. disiens", "assay": "MIC agar dilution, anaerobic bacteria", "type": "cell-based", "settings": "Culture # 1763"}, "B. loescheii": {"tested_on": "B. loescheii", "assay": "MIC agar dilution, anaerobic bacteria", "type": "cell-based", "settings": "Culture # 1767"}, "B. bivius": {"tested_on": "B. bivius", "assay": "MIC agar dilution, anaerobic bacteria", "type": "cell-based", "settings": "Culture # 2483"}, "S. pyogenes": {"tested_on": "S. pyogenes", "assay": "MIC agar dilution, aerobic and facultative bacteria"}, "B. vulgatus": {"tested_on": "B. vulgatus", "assay": "MIC agar dilution, anaerobic bacteria", "type": "cell-based"}, "[2]": {"tested_on": "Peptostreptococcus asaccharolyticus", "assay": "MIC agar dilution, anaerobic bacteria", "type": "cell-based", "settings": "Culture # 1777"}, "B. thetaiotaomicron": {"tested_on": "B. thetaiotaomicron", "assay": "MIC agar dilution, anaerobic bacteria", "type": "cell-based"}, "P. anaerobius": {"tested_on": "P. anaerobius", "assay": "MIC agar dilution, anaerobic bacteria", "type": "cell-based", "settings": "Culture # 1780"}, "P. cepacia": {"tested_on": "P. cepacia", "assay": "MIC agar dilution, aerobic and facultative bacteria", "settings": "Culture # 1684"}, "P. species": {"tested_on": "P. species", "assay": "MIC agar dilution, anaerobic bacteria", "type": "cell-based", "settings": "Culture # 1776"}, "Clostridium perfringens": {"tested_on": "Clostridium perfringens", "assay": "microbe, parasite or virus in culture", "type": "cell-based"}, "Nocardia asteroides": {"tested_on": "Nocardia asteroides", "assay": "MIC agar dilution, aerobic and facultative bacteria", "settings": "Culture # 5173"}, "C. difficile": {"tested_on": "C. difficile", "assay": "MIC agar dilution, anaerobic bacteria", "type": "cell-based"}, "Veillonella parvula": {"tested_on": "Veillonella parvula", "assay": "MIC agar dilution, anaerobic bacteria", "type": "cell-based", "settings": "Culture # 2479"}, "Micrococcus luteus": {"tested_on": "Micrococcus luteus", "assay": "MIC agar dilution, aerobic and facultative bacteria"}, "Candida albicans": {"tested_on": "Candida albicans", "assay": "MIC agar dilution, aerobic and facultative bacteria", "settings": "Culture # 3622"}, "Enterobacter aerogenes": {"tested_on": "Enterobacter aerogenes", "assay": "MIC agar dilution, aerobic and facultative bacteria", "settings": "Culture # 1677"}, "S. epidermidis": {"tested_on": "S. epidermidis", "assay": "MIC agar dilution, aerobic and facultative bacteria", "settings": "Culture # 1666"}},
  "data": [
    {"smiles": "CCc1c(Cl)c(O)c(Cl)c(O)c1C(=O)O[C@H]1[C@H](O)[C@H](OC)[C@H](OC/C2=C\\C=C\\C[C@H](O)/C(C)=C/[C@H](CC)[C@@H](O[C@@H]3OC(C)(C)[C@@H](OC(=O)C(C)C)[C@H](O)[C@@H]3O)/C(C)=C/C(C)=C/C[C@@H]([C@@H](C)O)OC2=O)O[C@@H]1C", "note": "[Tiacumicin B, tiacumicin B]", "values": [
      {"measurement": "MIC", "setting": "C. ramosum", "value": "> 128", "unit": "µg/mL"},
      {"measurement": "MIC", "setting": "Fusobacterium nucleatum", "value": "> 128", "unit": "µg/mL"},
      {"measurement": "MIC", "setting": "P. magnus", "value": 0.5, "unit": "µg/mL"},
      {"measurement": "MIC", "setting": "Fusobacterium species", "value": "> 128", "unit": "µg/mL"},
      {"measurement": "MIC", "setting": "Enterococcus faecium", "value": 6.2, "unit": "µg/mL"},
      {"measurement": "MIC", "setting": "E. coli; DC-2, Culture # 1674", "value": "> 100", "unit": "µg/mL"},
      {"measurement": "MIC", "setting": "E. coli; H560, Culture # 1675", "value": "> 100", "unit": "µg/mL"},
      {"measurement": "MIC", "setting": "E. coli; Juhl, Culture # 1673", "value": "> 100", "unit": "µg/mL"},
      {"measurement": "MIC", "setting": "E. coli; KNK437, Culture # 1676", "value": "> 100", "unit": "µg/mL"},
      {"measurement": "MIC", "setting": "E. coli; SS, Culture # 2489", "value": "> 100", "unit": "µg/mL"},
      {"measurement": "MIC", "setting": "Streptococcus bovis", "value": 25, "unit": "µg/mL"},
      {"measurement": "MIC", "setting": "Pseudomonas aeruginosa; Culture # 1679", "value": "> 100", "unit": "µg/mL"},
      {"measurement": "MIC", "setting": "Pseudomonas aeruginosa; Culture # 1680", "value": "> 100", "unit": "µg/mL"},
      {"measurement": "MIC", "setting": "Pseudomonas aeruginosa; Culture # 1681", "value": "> 100", "unit": "µg/mL"},
      {"measurement": "MIC", "setting": "Pseudomonas aeruginosa; Culture # 1682", "value": 12.5, "unit": "µg/mL"},
      {"measurement": "MIC", "setting": "Pseudomonas aeruginosa; cipro R, Culture # 1919", "value": "> 100", "unit": "µg/mL"},
      {"measurement": "MIC", "setting": "Pseudomonas aeruginosa; cipro R, Culture # 1920", "value": "> 100", "unit": "µg/mL"},
      {"measurement": "MIC", "setting": "Streptococcus agalactiae", "value": 12.5, "unit": "µg/mL"},
      {"measurement": "MIC", "setting": "Klebsiella pneumoniae", "value": "> 100", "unit": "µg/mL"},
      {"measurement": "MIC", "setting": "[1]", "value": "> 100", "unit": "µg/mL"},
      {"measurement": "MIC", "setting": "Mycobacterium smegmatis", "value": 12.5, "unit": "µg/mL"},
      {"measurement": "MIC", "setting": "Providencia stuartii", "value": "> 100", "unit": "µg/mL"},
      {"measurement": "MIC", "setting": "Propionibacterium acnes", "value": 4, "unit": "µg/mL"},
      {"measurement": "MIC", "setting": "Staphylococcus aureus; Culture # 1662, brain heart infusion agar, 37° C., 20 hours", "value": 6.2, "unit": "µg/mL"},
      {"measurement": "MIC", "setting": "Staphylococcus aureus; Culture # 1664", "value": 6.2, "unit": "µg/mL"},
      {"measurement": "MIC", "setting": "Staphylococcus aureus; Culture # 1690", "value": 12.5, "unit": "µg/mL"},
      {"measurement": "MIC", "setting": "Staphylococcus aureus; Culture # 2124", "value": 6.2, "unit": "µg/mL"},
      {"measurement": "MIC", "setting": "Staphylococcus aureus; Culture # 2130", "value": 12.5, "unit": "µg/mL"},
      {"measurement": "MIC", "setting": "Staphylococcus aureus; Culture # 2498", "value": 6.2, "unit": "µg/mL"},
      {"measurement": "MIC", "setting": "Staphylococcus aureus; cipro res., Culture # 3384", "value": 12.5, "unit": "µg/mL"},
      {"measurement": "MIC", "setting": "Bacteriodes fragilis; Culture # 1756, Wilkins-Chalgren agar, 37° C., 48 hours", "value": "> 128", "unit": "µg/mL"},
      {"measurement": "MIC", "setting": "Bacteriodes fragilis; Culture # 1757", "value": "> 128", "unit": "µg/mL"},
      {"measurement": "MIC", "setting": "Bacteriodes fragilis; Culture # 1758", "value": "> 128", "unit": "µg/mL"},
      {"measurement": "MIC", "setting": "Bacteriodes fragilis; Culture # 1999", "value": "> 128", "unit": "µg/mL"},
      {"measurement": "MIC", "setting": "B. disiens", "value": 32, "unit": "µg/mL"},
      {"measurement": "MIC", "setting": "B. loescheii", "value": 64, "unit": "µg/mL"},
      {"measurement": "MIC", "setting": "B. bivius", "value": 128, "unit": "µg/mL"},
      {"measurement": "MIC", "setting": "S. pyogenes; Culture # 1671", "value": 25, "unit": "µg/mL"},
      {"measurement": "MIC", "setting": "S. pyogenes; const., Culture # 1672", "value": 3.1, "unit": "µg/mL"},
      {"measurement": "MIC", "setting": "S. pyogenes; inducible, Culture # 2548", "value": 6.2, "unit": "µg/mL"},
      {"measurement": "MIC", "setting": "B. vulgatus; Culture # 1762", "value": "> 128", "unit": "µg/mL"},
      {"measurement": "MIC", "setting": "B. vulgatus; Culture # 2481", "value": "> 128", "unit": "µg/mL"},
      {"measurement": "MIC", "setting": "[2]", "value": 1, "unit": "µg/mL"},
      {"measurement": "MIC", "setting": "B. thetaiotaomicron; Culture # 1764", "value": "> 128", "unit": "µg/mL"},
      {"measurement": "MIC", "setting": "B. thetaiotaomicron; Culture # 1765", "value": "> 128", "unit": "µg/mL"},
      {"measurement": "MIC", "setting": "B. thetaiotaomicron; Culture # 1766", "value": "> 128", "unit": "µg/mL"},
      {"measurement": "MIC", "setting": "P. anaerobius", "value": 0.008, "unit": "µg/mL"},
      {"measurement": "MIC", "setting": "P. cepacia", "value": "> 100", "unit": "µg/mL"},
      {"measurement": "MIC", "setting": "P. species", "value": 32, "unit": "µg/mL"},
      {"measurement": "MIC", "setting": "Clostridium perfringens; Culture # 1771", "value": 0.008, "unit": "µg/mL"},
      {"measurement": "MIC", "setting": "Clostridium perfringens; Culture # 1772", "value": 0.03, "unit": "µg/mL"},
      {"measurement": "MIC", "setting": "Clostridium perfringens; Culture # 1773", "value": 0.008, "unit": "µg/mL"},
      {"measurement": "MIC", "setting": "Nocardia asteroides", "value": 0.39, "unit": "µg/mL"},
      {"measurement": "MIC", "setting": "C. difficile; Culture # 1496", "value": 0.06, "unit": "µg/mL"},
      {"measurement": "MIC", "setting": "C. difficile; Culture # 1497", "value": 0.06, "unit": "µg/mL"},
      {"measurement": "MIC", "setting": "C. difficile; Culture # 1774", "value": 0.03, "unit": "µg/mL"},
      {"measurement": "MIC", "setting": "C. difficile; Culture # 2025", "value": 0.06, "unit": "µg/mL"},
      {"measurement": "MIC", "setting": "C. difficile; Culture # 2480", "value": 0.06, "unit": "µg/mL"},
      {"measurement": "MIC", "setting": "C. difficile; Culture # 2528", "value": 0.06, "unit": "µg/mL"},
      {"measurement": "MIC", "setting": "C. difficile; Culture # 2529", "value": 0.06, "unit": "µg/mL"},
      {"measurement": "MIC", "setting": "Veillonella parvula", "value": 64, "unit": "µg/mL"},
      {"measurement": "MIC", "setting": "Micrococcus luteus; Culture # 2493", "value": 0.1, "unit": "µg/mL"},
      {"measurement": "MIC", "setting": "Micrococcus luteus; Culture # 2517", "value": 0.2, "unit": "µg/mL"},
      {"measurement": "MIC", "setting": "Candida albicans", "value": "> 100", "unit": "µg/mL"},
      {"measurement": "MIC", "setting": "Enterobacter aerogenes", "value": "> 100", "unit": "µg/mL"},
      {"measurement": "MIC", "setting": "S. epidermidis", "value": 3.1, "unit": "µg/mL"}
    ]}
  ]
}
